# Article PMC11435058, “Synthesis of New Thiazole-Privileged Chalcones as Tubulin Polymerization Inhibitors with Potential Anticancer Activities” (Pharmaceuticals, 2024)
# Read-outs that look alike come from different tables or passages of the source.
# Assays:
# CAKI-1 = assay: NCI-60 anticancer screen (SRB; single dose and five doses); settings: Homo sapiens
# SNB-75 = assay: as above
# NCI-H322M = assay: as above; settings: Homo sapiens
# IGROV1 = assay: as above; settings: Homo sapiens
# UO-31 = assay: as above; settings: Homo sapiens
# NCI-H522 = assay: as above; settings: Homo sapiens
# SK-MEL-2 = assay: as above; settings: Homo sapiens
# K-562 = assay: as above; settings: Homo sapiens
# EKVX = assay: as above; settings: Homo sapiens
# HOP-92 = assay: as above; settings: Homo sapiens
# HCT-15 = assay: as above; settings: Homo sapiens
# UACC-62 = assay: as above; settings: Homo sapiens
# NCI-H226 = assay: as above; settings: Homo sapiens
# MCF7 = assay: as above; settings: Homo sapiens
# HS 578T = assay: as above; settings: Homo sapiens
# HT29 = assay: as above; settings: Homo sapiens
# SF-268 = assay: as above; settings: Homo sapiens
# U251 = assay: as above; settings: Homo sapiens
# COLO 205 = assay: as above; settings: Homo sapiens
# [1] = system: 60 human tumor cell lines panel; assay: NCI-60 anticancer screen, whole panel (means and ranges over the cell lines); assay type: cell-based; settings: Homo sapiens, 48 h, dose of 10 μM
# OVCAR-3 = assay: cells; settings: Homo sapiens
# HCT-116 = assay: NCI-60 anticancer screen (SRB; single dose and five doses); settings: Homo sapiens
# ACHN = assay: as above; settings: Homo sapiens
# OVCAR-8 = assay: as above; settings: Homo sapiens
# MDA-MB-468 = assay: as above; assay type: cell-based, human
# Method: The methodology of the NCI anticancer screening has been described in detail elsewhere (http://www.dtp.nci.nih.gov). For detailed information, see Appendix A in the Supplementary Materials.
# 4.2.1. Screening of the anticancer activity against a panel of 60 cell Lines.
# The methodology of the NCI anticancer screening has been described in detail elsewhere (http://www.dtp.nci.nih.gov.) Briefly, the primary anticancer assay was performed at approximately 60 human tumor cell lines panel derived from nine neoplastic diseases, in accordance with the protocol of the Drug Evaluation Branch, National Cancer Institute, Bethesda. Tested compounds were added to the culture at a single concentration (10μM) and the cultures were incubated for 48 h. End -point determinations were made with a protein binding dye, SRB. Results for each tested compound was reported as the percent of growth of the treated cells when compared to the untreated control cells. The percentage growth was evaluated spectrophotometrically versus controls not treated with test agents. […]
# [2] = 48 h, read-out: Growth Percentage
smiles,measurement,setting,value
"COc1cc(/C=C/C(=O)c2sc(=S)[nH]c2C)cc(OC)c1OC [2p, (E)-1-(4-Methyl-2-Thioxo-2,3-Dihydrothiazol-5-yl)-3-(3,4,5-Trimethoxyphenyl)Prop-2-En-1-One]",GI50,CAKI-1; CAKI-1,2.57 µM
same,IC50,CAKI-1; CAKI-1,4.68 µM
same,activity at 10 µM,"CAKI-1; CAKI-1, 48 h, read-out: Growth Percentage",28.2%
same,CC50,"CAKI-1; CAKI-1, read-out: LC50",45.7 µM
same,IC (TGI),"CAKI-1; CAKI-1, read-out: TGI",13.2 µM
same,GI50,"SNB-75; Homo sapiens, SNB-75",2.19 µM
same,IC50,"SNB-75; Homo sapiens, SNB-75",7.59 µM
same,CC50,"SNB-75; Homo sapiens, SNB-75, read-out: LC50",28.8 µM
same,TGI,"SNB-75; five-dose, CNS Cancer SNB-75",6.17 µM
same,GI50,NCI-H322M,4.57 µM
same,IC50,NCI-H322M,14.1 µM
same,CC50,NCI-H322M; read-out: LC50,51.3 µM
same,IC (TGI),NCI-H322M; read-out: TGI,18.6 µM
same,GI50,IGROV1; IGROV-1,3.31 µM
same,IC50,IGROV1; IGROV-1,5.75 µM
same,CC50,"IGROV1; IGROV-1, read-out: LC50",> 100 µM
same,IC (TGI),"IGROV1; IGROV-1, read-out: TGI",13.8 µM
same,GI50,UO-31; UO-31,3.02 µM
same,IC50,UO-31; UO-31,7.76 µM
same,IC (TGI),"UO-31; UO-31, read-out: TGI",15.5 µM
same,GI50,NCI-H522; NCI-H522,3.16 µM
same,IC50,NCI-H522; NCI-H522,7.59 µM
same,activity at 10 µM,"NCI-H522; NCI-H522, 48 h, read-out: Growth Percentage",16.3%
same,CC50,"NCI-H522; NCI-H522, read-out: LC50",40.7 µM
same,IC (TGI),"NCI-H522; NCI-H522, read-out: TGI",12.3 µM
same,GI50,SK-MEL-2; SK-MEL-2,3.09 µM
same,IC50,SK-MEL-2; SK-MEL-2,11 µM
same,activity at 10 µM,"SK-MEL-2; SK-MEL-2, 48 h, read-out: Growth Percentage",34.9%
same,CC50,"SK-MEL-2; SK-MEL-2, read-out: LC50",42.7 µM
same,IC (TGI),"SK-MEL-2; SK-MEL-2, read-out: TGI",11.5 µM
same,GI50,K-562; K562,3.02 µM
same,IC50,K-562; K562,3.72 µM
same,activity at 10 µM,"K-562; K562, 48 h, read-out: Growth Percentage",8.21%
same,CC50,"K-562; K562, read-out: LC50",> 100 µM
same,IC (TGI),"K-562; K562, read-out: TGI",> 100 µM
same,GI50,EKVX,4.07 µM
same,IC50,EKVX,11 µM
same,activity at 10 µM,EKVX; [2],23.4%
same,CC50,EKVX; read-out: LC50,> 100 µM
same,IC (TGI),EKVX; read-out: TGI,22.9 µM
same,GI50,HOP-92; HOP-92,2.95 µM
same,IC50,HOP-92; HOP-92,44.7 µM
same,activity at 10 µM,"HOP-92; HOP-92, 48 h, read-out: Growth Percentage",16.4%
same,CC50,"HOP-92; HOP-92, read-out: LC50",> 100 µM
same,IC (TGI),"HOP-92; HOP-92, read-out: TGI",19.9 µM
same,GI50,HCT-15; HCT-15,3.24 µM
same,IC50,HCT-15; HCT-15,4.17 µM
same,activity at 10 µM,"HCT-15; HCT-15, 48 h, read-out: Growth Percentage",-3.26%
same,CC50,"HCT-15; HCT-15, read-out: LC50",74.1 µM
same,IC (TGI),"HCT-15; HCT-15, read-out: TGI",15.5 µM
same,GI50,UACC-62; UACC-62,2.82 µM
same,IC50,UACC-62; UACC-62,5.37 µM
same,activity at 10 µM,"UACC-62; UACC-62, 48 h, read-out: Growth Percentage",-3.11%
same,IC (TGI),"UACC-62; UACC-62, read-out: TGI",12.3 µM
same,GI50,NCI-H226; NCI-H226,3.63 µM
same,IC50,NCI-H226; NCI-H226,32.4 µM
same,activity at 10 µM,"NCI-H226; NCI-H226, 48 h, read-out: Growth Percentage",16.4%
same,CC50,"NCI-H226; NCI-H226, read-out: LC50",> 100 µM
same,IC (TGI),"NCI-H226; NCI-H226, read-out: TGI",36.3 µM
same,GI50,MCF7; MCF7,3.02 µM
same,IC50,MCF7; MCF7,4.27 µM
same,activity at 10 µM,"MCF7; MCF7, 48 h, read-out: Growth Percentage",9.35%
same,CC50,"MCF7; MCF7, read-out: LC50",45.7 µM
same,IC (TGI),"MCF7; MCF7, read-out: TGI",10.7 µM
same,GI50,HS 578T,2.88 µM
same,IC50,HS 578T,> 100 µM
same,activity at 10 µM,HS 578T; [2],3.94%
same,CC50,HS 578T; read-out: LC50,> 100 µM
same,IC (TGI),HS 578T; read-out: TGI,39.8 µM
same,GI50,HT29; HT-29,3.47 µM
same,IC50,HT29; HT-29,4.57 µM
same,activity at 10 µM,"HT29; HT-29, 48 h, read-out: Growth Percentage",40.1%
same,CC50,"HT29; HT-29, read-out: LC50",> 100 µM
same,IC (TGI),"HT29; HT-29, read-out: TGI",13.5 µM
same,GI50,SF-268; SF-268,2.63 µM
same,IC50,SF-268; SF-268,6.46 µM
same,activity at 10 µM,"SF-268; SF-268, 48 h, read-out: Growth Percentage",18.5%
same,CC50,"SF-268; SF-268, read-out: LC50",55 µM
same,IC (TGI),"SF-268; SF-268, read-out: TGI",11.2 µM
same,GI50,U251; U-251,3.02 µM
same,IC50,U251; U-251,4.17 µM
same,activity at 10 µM,"U251; U-251, 48 h, read-out: Growth Percentage",15%
same,CC50,"U251; U-251, read-out: LC50",43.6 µM
same,IC (TGI),"U251; U-251, read-out: TGI",12 µM
same,GI50,COLO 205; COLO 205,16.2 µM
same,IC50,COLO 205; COLO 205,28.8 µM
same,activity at 10 µM,"COLO 205; COLO 205, 48 h, read-out: Growth Percentage",81.7%
same,CC50,"COLO 205; COLO 205, read-out: LC50",70.8 µM
same,IC (TGI),"COLO 205; COLO 205, read-out: TGI",33.9 µM
same,activity at 10 µM,"[1]; mean over the tested cell lines, read-out: Mean growth percentage",14.9%
same,activity at 10 µM,"[1]; range over the cell lines, read-out: growth percentages against most of the tested cells (lowest to highest)",-64.6 to 96.5%
same,GI50,OVCAR-3; OVCAR-3,2.45 µM
same,activity at 10 µM,"OVCAR-3; OVCAR-3, 48 h, read-out: Growth Percentage",-25.2%
same,IC50,"OVCAR-3; OVCAR-3, five-dose, Ovarian Cancer OVCAR-3",5.25 µM
same,CC50,"OVCAR-3; OVCAR-3, read-out: LC50",25.7 µM
same,IC (TGI),"OVCAR-3; OVCAR-3, read-out: TGI",6.92 µM
same,GI50,HCT-116; HCT-116,3.16 µM
same,IC50,HCT-116; HCT-116,3.63 µM
same,activity at 10 µM,"HCT-116; HCT-116, 48 h, read-out: Growth Percentage",6.81%
same,CC50,"HCT-116; HCT-116, read-out: LC50",69.2 µM
same,IC (TGI),"HCT-116; HCT-116, read-out: TGI",14.4 µM
same,GI50,ACHN,3.89 µM
same,IC50,ACHN,6.46 µM
same,activity at 10 µM,ACHN; [2],19.6%
same,CC50,ACHN; read-out: LC50,55 µM
same,IC (TGI),ACHN; read-out: TGI,16.6 µM
same,GI50,OVCAR-8; OVCAR-8,2.14 µM
same,IC50,OVCAR-8; OVCAR-8,3.55 µM
same,activity at 10 µM,"OVCAR-8; OVCAR-8, 48 h, read-out: Growth Percentage",4.32%
same,CC50,"OVCAR-8; OVCAR-8, read-out: LC50",45.7 µM
same,IC (TGI),"OVCAR-8; OVCAR-8, read-out: TGI",5.5 µM
same,activity at 10 µM,"MDA-MB-468; Homo sapiens, 48 h, MDA-MB-468, dose of 10 μM, read-out: Growth Percentage",3.79%
same,IC50,"MDA-MB-468; Homo sapiens, MDA-MB-468, MDA-MB-468, Breast Cancer, five dose",5.75 µM
same,GI50,"MDA-MB-468; Homo sapiens, MDA-MB-468, Breast Cancer, five dose",1.55 µM
same,CC50,"MDA-MB-468; Homo sapiens, MDA-MB-468, Breast Cancer, five dose, read-out: LC50 (the source's name)",17.8 µM
same,TGI,"MDA-MB-468; MDA-MB-468, Breast Cancer, five dose",4.47 µM
